Read-outs that look alike come from different tables or passages of the source.
Key:
[1] = target: T1, helicase domain of the Pol θ protein (Homo sapiens, UniProt O75417); assay: Biochemical Activity Assay (ADP Glo Assay) of Pol θ inhibitor, ATPase activity
T1 construct: The helicase domain of the Pol θ protein was purified from insect protein expression system; made in house; host or cells: insect protein expression system

cells = details: Homo sapiens, DLD-1, 240 h
[2] = ADP-Glo assay, ATPase activity of Pol θ helicase domain, ssDNA substrate, read-out: Biochemical assay IC50
[3] = ADP-Glo, ssDNA substrate, 60 min at room temperature, read-out: Biochemical assay IC50
[4] = read-out: Cell viability assay IC50 (nM), CTG assay, CellTiter Glo, read on Day 10, cell line not given
[5] = read-out: Cell viability assay IC50 (nM), CTG on Day 10, cell line not given (method: DLD1 and DLD1^-/- cells)
[6] = read-out: Cell viability assay IC50 (nM)

T1 sequence (O75417 102-554 limits assumed): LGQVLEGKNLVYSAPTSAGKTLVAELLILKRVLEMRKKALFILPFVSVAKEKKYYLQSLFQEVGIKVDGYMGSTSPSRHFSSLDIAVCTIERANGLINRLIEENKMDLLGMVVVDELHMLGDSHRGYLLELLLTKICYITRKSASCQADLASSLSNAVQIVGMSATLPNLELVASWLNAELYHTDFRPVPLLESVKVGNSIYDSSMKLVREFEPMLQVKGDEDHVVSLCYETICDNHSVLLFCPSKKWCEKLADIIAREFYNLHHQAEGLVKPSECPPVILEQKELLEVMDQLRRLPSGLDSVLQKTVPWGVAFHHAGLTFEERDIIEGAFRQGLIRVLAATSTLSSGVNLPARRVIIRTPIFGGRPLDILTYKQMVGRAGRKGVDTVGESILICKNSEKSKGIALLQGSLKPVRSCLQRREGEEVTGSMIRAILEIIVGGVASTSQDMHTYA

Compound	IC50 [1, 2]	IC50 [1, 3]	IC50 (cells; [4])	IC50 (cells; [5])	IC50 ([1]; Biochemical assay IC50 (nM))	IC50 (cells; [6])	IC50 ([1]; Biochemical assay IC50 (nM), ADP-Glo assay, ATPase activity of Pol θ helicase domain, ssDNA substrate)
COc1cnc(Cl)cc1-c1cc(C)ncc1C(=O)Nc1nc2cc(C3=CCC(O)CC3)cnc2s1 (centres unmarked) [Example 2]	118 nM	50 to 200 nM	3160 nM	> 1000 nM			
COc1cnc(Cl)cc1-c1cc(C)ncc1C(=O)Nc1nc2ccc(N3CCn4ccnc4C3)nc2s1 [Example 139]	19.1 nM		121 nM				
COc1cnc(Cl)cc1-c1cc(C)ncc1C(=O)Nc1nc2cnc(N3CCC(O)CC3)cc2s1 [Example 51]	9.5 nM	< 50 nM	85.8 nM	< 100 nM			
COc1cnc(Cl)cc1-c1cc(C)ncc1C(=O)Nc1nc2ncc(N3CCC(OC)CC3)cc2s1 [Example 66]	4.98 nM	< 50 nM	192 nM	100 to 500 nM			
COc1cnc(Cl)c(F)c1-c1cc(C)ncc1C(=O)Nc1nc2ccc(N3CCC(O)CC3)nc2s1 [Example 53]	1.96 nM	< 50 nM	9.38 nM	< 100 nM			
COc1cnc(C(F)F)cc1-c1cc(C)ncc1C(=O)Nc1nc2cnc(-c3nncn3C)cc2s1 [Example 218]					31.1 nM	656 nM	
COc1cnc(Cl)cc1-c1cnccc1C(=O)Nc1nc2ccc(C3=CCC(O)CC3)nc2s1 (centres unmarked) [Example 4]	19.1 nM	< 50 nM	736 nM	500 to 1000 nM			
COc1cnc(Cl)cc1-c1cc(C)ncc1C(=O)Nc1nc2ncc(N3CCC(NC(=O)C4(C)CC4)CC3)cc2s1 [Example 74]	6.44 nM	< 50 nM	383 nM	100 to 500 nM			
COc1cnc(Cl)cc1-c1cc2cncn2cc1C(=O)Nc1nc2cnc(N3CCC(O)CC3)cc2s1 [Example 121]	51.9 nM		2510 nM				
COc1cnc(Cl)cc1-c1cc(C)ncc1C(=O)Nc1nc2ncc(N3CCC(NC(C)=O)CC3)cc2s1 [Example 57, N-(6-(4-acetaminopiperidin-1-yl)thiazolo[4,5-b]pyridin-2-yl)-2'-chloro-5'-methoxy-6-me thyl-[4,4'-bipyridine]-3-carboxamide]	2.51 nM	< 50 nM	126 nM	100 to 500 nM			
COc1cnc(Cl)cc1-c1cc(C)ncc1C(=O)Nc1nc2ncc(N3CC[C@@H](O)[C@H](F)C3)cc2s1 [Example 101]	3.78 nM	< 50 nM	389 nM	100 to 500 nM			
COc1cnc(Cl)cc1-c1cc(C)ncc1C(=O)Nc1nc2ccc(-c3c(C)cnn3C)cc2s1 [Example 148]	4.93 nM		4.13 nM				
COc1cnc(Cl)cc1-c1cc(C)ncc1C(=O)Nc1nc2ccc(N3CCC(O)C3)nc2s1 (centres unmarked) [Example 47]	53 nM	50 to 200 nM	631 nM	500 to 1000 nM			
COc1cnc(Cl)cc1-c1cc(C)ncc1C(=O)Nc1nc2c(F)nc(N3CCC(O)CC3)cc2s1 [Example 123]	10.5 nM		24.2 nM				
COc1cnc(Cl)cc1-c1cc(C)ncc1C(=O)Nc1nc2ncc(CN3CCC(O)CC3)cc2s1 [Example 144]	36.7 nM		2220 nM				
COc1cnc(Cl)cc1-c1cc(C)ncc1C(=O)Nc1nc2cc(F)c(N3CCC(O)CC3)cc2s1 [Example 119]	5.46 nM		10.7 nM				
COc1cnc(Cl)cc1-c1cc(C)ncc1C(=O)Nc1nc2ncc(C3=COCCO3)cc2s1 [Example 86]	2.67 nM	< 50 nM	23.3 nM	< 100 nM			
COc1cnc(Cl)cc1-c1cnccc1C(=O)Nc1nc2ccc([C@H]3CC[C@H](O)CC3)nc2s1 [Example 34]	48.9 nM	< 50 nM	2000 nM	> 1000 nM			
COc1cnc(Cl)cc1-c1cc(C)ncc1C(=O)Nc1nc2cnc(-c3c(C#N)cnn3C)cc2s1 [Example 169]	8.84 nM		89.1 nM				
COc1cnc(Cl)cc1-c1cc(C)ncc1C(=O)Nc1nc2c(C(N)=O)cc(-c3c(C)cnn3C)cc2s1 [Example 165]	16.9 nM		446 nM				
COc1cnc(Cl)cc1-c1cc(C)ncc1C(=O)Nc1nc2ncc(N3CCC(N)CC3)cc2s1 [Example 58]	11 nM	< 50 nM	3420 nM	> 1000 nM			

Compound	IC50 [1, 2]	IC50 [1, 3]	IC50 (cells; [4])	IC50 (cells; [5])	IC50 ([1]; Biochemical assay IC50 (nM))	IC50 (cells; [6])	IC50 ([1]; Biochemical assay IC50 (nM), ADP-Glo assay, ATPase activity of Pol θ helicase domain, ssDNA substrate)
COc1cnc(Cl)cc1-c1cc(C)ncc1C(=O)Nc1nc2ncc(-c3ccc(P(C)(C)=O)cc3)cc2s1 [Example 75, 2'-chloro-N-(6-(4-(dimethylphosphoryl)phenyl)thiazolo[4,5-b]pyridin-2-yl)-5'-methoxy-6-methyl-[4,4'-bipyridine]-3-carboxamide]	2.51 nM	< 50 nM	681 nM	500 to 1000 nM			
COc1cnc(Cl)cc1-c1cc(C)ncc1C(=O)Nc1nc2ncc(-c3c(C)cnn3C)nc2s1 [Example 160]	5.75 nM		82.5 nM				
COc1cnc(Cl)cc1-c1cc(C)ncc1C(=O)Nc1nc2ncc(C3COCCO3)cc2s1 (centres unmarked) [Example 182, N-(6-(1,4-dioxan-2-yl)thiazolo[4,5-b]pyridin-2-yl)-2'-chloro-5'-methoxy-6-methyl-[4,4'-bipyridine]-3-carboxamide]	2.08 nM		39.8 nM				
COc1cnc(Cl)cc1-c1cc(C)ncc1C(=O)Nc1nc2ncc(C3=CCNCC3)cc2s1 [Example 16]	13.5 nM	< 50 nM	2330 nM	> 1000 nM			
COc1cnc(Cl)c(F)c1-c1cc(C)ncc1C(=O)Nc1nc2cc(F)c(N3CCC(O)CC3)nc2s1 [Example 125]	10 nM		3.98 nM				
COc1cnc(Cl)cc1-c1cc(C)ncc1C(=O)Nc1nc2c(F)cc(C3=CCC(O)CC3)cc2s1 (centres unmarked) [Example 13]	2.89 nM	< 50 nM	5.84 nM	< 100 nM			
COc1cnc(Cl)cc1-c1cc(C)ncc1C(=O)Nc1nc2ccc(-c3ccncc3Cl)nc2s1 [Example 82]	6.71 nM	< 50 nM	104 nM	100 to 500 nM			
COc1cnc(Cl)cc1-c1cc(C)ncc1C(=O)Nc1nc2ncc(C3CCOCC3)cc2s1 [Example 37]	4.36 nM	< 50 nM	44.7 nM	< 100 nM			
COc1cnc(Cl)cc1-c1cc(C)ncc1C(=O)Nc1nc2ncc(-c3ccc(N4CCNCC4)cc3)cc2s1 [Example 81]	2.51 nM	< 50 nM	30.4 nM	< 100 nM			
COc1cnc(Cl)cc1-c1cc(C)ncc1C(=O)Nc1nc2cc(C3CCC(O)CC3)cnc2s1 (centres unmarked) [Example 35]	251 nM	200 to 500 nM	3290 nM	> 1000 nM			
[2H]COc1cnc(Cl)cc1-c1cc(C)ncc1C(=O)Nc1nc2cnc(C3=CCC(O)CC3)cc2s1 (centres unmarked) [Example 108, 2'-chloro-N-(6-(4-hydroxycyclohex-1-en-1-yl)thiazolo[4,5-c]pyridin-2-yl)-5'-deuteromet hoxy-6-methyl-[4,4'-bipyridine]-3-carboxamide]	1.88 nM	< 50 nM	8.79 nM	< 100 nM			
[2H]C([2H])([2H])c1cnn(C)c1-c1cc2sc(NC(=O)c3cnc(C)cc3-c3cc(Cl)ncc3OC)nc2cn1 [Example 176, 2'-chloro-5'-methoxy-6-methyl-N-(6-(1-methyl-4-(methyl-d3)-1H-pyrazol-5-yl)thiazolo [4,5-c]pyridin-2-yl)-[4,4'-bipyridine]-3-carboxamide]	4.64 nM		4.29 nM				
COc1cnc(Cl)cc1-c1cc(C)ncc1C(=O)Nc1nc2ccc(N3CCC(O)CC3)cc2s1 [Example 102]	8.06 nM	< 50 nM	178 nM	< 100 nM			
COc1cnc(Cl)cc1-c1cc(C)ncc1C(=O)Nc1nc2ccc(-c3c(C)cnn3C)nc2s1 [Example 80]	9.12 nM	< 50 nM	30.3 nM	< 100 nM			
[2H]C1(O)CC=C(c2cc3sc(NC(=O)c4cnc(C)cc4-c4cc(Cl)ncc4OC)nc3cn2)CC1 (centres unmarked) [Example 111, 2'-chloro-N-(6-(4-hydroxycyclohex-1-en-1-yl-4-d)thiazolo[4,5-c]pyridin-2-yl)-5'-methox y-6-methyl-[4,4'-bipyridine]-3-carboxamide]	3.78 nM	< 50 nM	13.1 nM	< 100 nM			
COc1cnc(Cl)cc1-c1cc(C)ncc1C(=O)Nc1nc2c(s1)CN(C(=O)c1ccccc1)CC2 [Example 191, N-(5-benzoyl-4.5.6,7-tetrahydrothiazolo[5.4]pyridin-2-yl)-2'-chloro-5'-methoxy-6-methyl-[4,4'-bipyridine]-3-carboxamide]						521 nM	29.3 nM
COc1cnc(Cl)cc1-c1cc(C)ncc1C(=O)Nc1nc2ccc(C3CCN(C)CC3)nc2s1 [Example 36]	236 nM	200 to 500 nM	584 nM	500 to 1000 nM			
COc1cnc(Cl)cc1-c1cc(C)ncc1C(=O)Nc1nc2cnc(C3=CC[C@@H](O)CC3)cc2s1 [Example 115, (S) -2'-chloro-N-(6-(4-hydroxycyclohex-1-en-1-yl)thiazolo[4,5-c]pyridin-2-yl)-5'-methoxy-6-methyl-[4,4'-bipyridine]-3-c arboxamide]	3.21 nM	< 50 nM	2.61 nM	< 100 nM			
COc1cnc(Cl)c(F)c1-c1cc(C)ncc1C(=O)Nc1nc2ccc(-c3c(C)nnn3C)cc2s1 [Example 224]	3.98 nM		3.16 nM				
COc1cnc(Cl)cc1-c1cc(C)ncc1C(=O)Nc1nc2cc(F)c(C3=CCC(O)CC3)cc2s1 (centres unmarked) [Example 84]	1.81 nM	< 50 nM	2.42 nM	< 100 nM			

Reference: patent EP4585599A1, “NITROGEN-CONTAINING FUSED RING COMPOUND, INTERMEDIATE THEREOF, PREPARATION METHOD THEREFOR AND USE THEREOF” (Hangzhou Synrx Therapeutics Biomedical Technology Co., Ltd., priority 2022, dated 2024)
